One block for each compound: values may come before it.
Key:
[1] = test system: Epidermal growth factor receptor (Homo sapiens), P00533 [UNDEFINED MUTATION]; experiment: Selectivity interaction (Ambit KINOMEscan and KiNATiv profiling in Jurkat cells) EUB0000090b EGFR; type: cell-based; settings: at 1 µM
[2] = molecular target: Serine/threonine-protein kinase Chk2 (Homo sapiens) (UniProt O96017); experiment: Selectivity interaction (ActivX KiNativ screen (kinase selectivity in THP-1 cell lysates)) EUB0000639a CHEK2; type: subcellular; settings: lysate, at 0.01 µM
[3] = molecular target: Calcium/calmodulin-dependent protein kinase type 1 (Homo sapiens) (UniProt Q14012); experiment: Selectivity interaction (ActivX KiNativ screen (kinase selectivity in THP-1 cell lysates)) EUB0000639a CAMK1; type: subcellular; settings: lysate, at 1 µM
[4] = molecular target: Receptor-type tyrosine-protein kinase FLT3 (Homo sapiens) (UniProt P36888); experiment: Selectivity interaction (ProQinase) EUB0000171b FLT3; settings: at 5 µM
[5] = test system: eIF-2-alpha kinase GCN2 (Homo sapiens), Q9P2K8 [S808G]; experiment: Selectivity interaction (KinomeScan (DiscoverX)) EUB0000618a EIF2AK4; settings: at 10 µM
[6] = molecular target: T1, Muscle, skeletal receptor tyrosine-protein kinase (Homo sapiens) (UniProt O15146); experiment: Selectivity interaction (KinomeScan (DiscoverX)) EUB0000666a MUSK; settings: at 10 µM
T1 sequence (whole entry): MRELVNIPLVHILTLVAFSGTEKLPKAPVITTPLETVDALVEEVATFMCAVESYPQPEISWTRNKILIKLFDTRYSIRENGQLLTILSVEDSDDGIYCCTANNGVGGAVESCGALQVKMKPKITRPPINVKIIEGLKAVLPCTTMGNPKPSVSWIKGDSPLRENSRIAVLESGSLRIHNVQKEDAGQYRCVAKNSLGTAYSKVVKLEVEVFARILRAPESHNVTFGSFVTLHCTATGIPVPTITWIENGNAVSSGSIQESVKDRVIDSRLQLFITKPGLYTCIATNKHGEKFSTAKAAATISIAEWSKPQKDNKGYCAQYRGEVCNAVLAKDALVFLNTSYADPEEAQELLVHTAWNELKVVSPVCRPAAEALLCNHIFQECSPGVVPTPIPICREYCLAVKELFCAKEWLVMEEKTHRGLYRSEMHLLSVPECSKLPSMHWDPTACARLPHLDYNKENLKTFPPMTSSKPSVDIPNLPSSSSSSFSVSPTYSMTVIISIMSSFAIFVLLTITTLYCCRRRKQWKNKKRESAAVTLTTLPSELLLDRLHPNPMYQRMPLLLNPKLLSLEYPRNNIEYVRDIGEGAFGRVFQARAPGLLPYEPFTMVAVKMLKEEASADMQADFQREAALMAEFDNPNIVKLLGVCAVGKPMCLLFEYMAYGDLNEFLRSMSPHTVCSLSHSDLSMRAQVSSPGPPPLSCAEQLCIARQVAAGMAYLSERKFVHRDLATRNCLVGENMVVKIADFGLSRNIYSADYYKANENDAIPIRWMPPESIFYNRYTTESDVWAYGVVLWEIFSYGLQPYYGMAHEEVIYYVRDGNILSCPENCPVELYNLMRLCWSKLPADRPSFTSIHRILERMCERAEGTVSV

[7] = molecular target: T2, Activin receptor type-1B (Homo sapiens) (UniProt P36896); experiment: Selectivity interaction (KinomeScan (DiscoverX)) EUB0000666a ACVR1B; settings: at 10 µM
T2 sequence (whole entry): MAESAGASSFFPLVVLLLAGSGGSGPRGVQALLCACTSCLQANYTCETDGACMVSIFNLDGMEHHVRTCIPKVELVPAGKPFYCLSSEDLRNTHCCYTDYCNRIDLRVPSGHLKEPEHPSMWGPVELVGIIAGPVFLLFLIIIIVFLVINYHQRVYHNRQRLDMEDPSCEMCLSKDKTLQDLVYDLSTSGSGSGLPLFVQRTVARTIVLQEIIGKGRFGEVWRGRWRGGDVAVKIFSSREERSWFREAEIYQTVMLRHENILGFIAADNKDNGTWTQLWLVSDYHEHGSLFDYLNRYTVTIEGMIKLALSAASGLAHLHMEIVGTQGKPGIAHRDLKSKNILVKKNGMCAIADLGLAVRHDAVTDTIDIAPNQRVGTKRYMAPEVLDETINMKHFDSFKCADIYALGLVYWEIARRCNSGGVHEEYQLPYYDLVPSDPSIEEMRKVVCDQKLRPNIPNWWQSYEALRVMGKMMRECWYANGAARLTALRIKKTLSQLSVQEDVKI

Epidermal growth factor receptor (Homo sapiens), P00533 [UNDEFINED MUTATION], sequence (P00533 whole entry, looked up, change not shown): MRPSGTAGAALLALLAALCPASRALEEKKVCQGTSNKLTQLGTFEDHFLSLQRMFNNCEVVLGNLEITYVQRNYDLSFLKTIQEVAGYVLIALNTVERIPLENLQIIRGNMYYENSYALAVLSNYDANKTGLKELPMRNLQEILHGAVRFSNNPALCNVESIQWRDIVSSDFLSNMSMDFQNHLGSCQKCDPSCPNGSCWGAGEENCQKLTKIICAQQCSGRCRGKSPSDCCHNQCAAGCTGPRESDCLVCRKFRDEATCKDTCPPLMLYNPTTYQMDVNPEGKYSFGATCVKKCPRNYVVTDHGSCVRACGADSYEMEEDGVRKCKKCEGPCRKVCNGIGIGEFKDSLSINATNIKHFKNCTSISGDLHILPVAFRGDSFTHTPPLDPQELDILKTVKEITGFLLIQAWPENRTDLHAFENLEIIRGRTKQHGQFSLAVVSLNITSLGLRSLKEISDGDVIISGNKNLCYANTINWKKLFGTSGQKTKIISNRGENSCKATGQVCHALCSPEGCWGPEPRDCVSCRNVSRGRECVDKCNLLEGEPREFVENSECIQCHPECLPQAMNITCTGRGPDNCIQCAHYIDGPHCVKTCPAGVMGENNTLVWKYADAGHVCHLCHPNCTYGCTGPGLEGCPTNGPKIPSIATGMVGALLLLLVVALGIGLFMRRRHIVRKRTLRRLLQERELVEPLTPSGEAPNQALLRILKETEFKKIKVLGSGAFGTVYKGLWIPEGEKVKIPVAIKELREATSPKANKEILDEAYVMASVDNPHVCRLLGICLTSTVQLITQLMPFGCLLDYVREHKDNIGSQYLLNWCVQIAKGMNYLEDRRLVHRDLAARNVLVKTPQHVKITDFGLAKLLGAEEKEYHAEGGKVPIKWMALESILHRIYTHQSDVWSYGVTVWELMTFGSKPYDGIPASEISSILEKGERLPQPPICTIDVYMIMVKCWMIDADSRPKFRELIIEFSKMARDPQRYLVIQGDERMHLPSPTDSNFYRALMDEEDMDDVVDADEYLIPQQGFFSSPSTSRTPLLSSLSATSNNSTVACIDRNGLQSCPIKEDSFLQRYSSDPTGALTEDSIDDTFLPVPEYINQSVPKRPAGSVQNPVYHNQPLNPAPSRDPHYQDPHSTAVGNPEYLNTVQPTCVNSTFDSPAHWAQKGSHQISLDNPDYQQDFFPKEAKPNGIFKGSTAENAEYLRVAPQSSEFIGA
Receptor-type tyrosine-protein kinase FLT3 (Homo sapiens), sequence (P36888 whole entry): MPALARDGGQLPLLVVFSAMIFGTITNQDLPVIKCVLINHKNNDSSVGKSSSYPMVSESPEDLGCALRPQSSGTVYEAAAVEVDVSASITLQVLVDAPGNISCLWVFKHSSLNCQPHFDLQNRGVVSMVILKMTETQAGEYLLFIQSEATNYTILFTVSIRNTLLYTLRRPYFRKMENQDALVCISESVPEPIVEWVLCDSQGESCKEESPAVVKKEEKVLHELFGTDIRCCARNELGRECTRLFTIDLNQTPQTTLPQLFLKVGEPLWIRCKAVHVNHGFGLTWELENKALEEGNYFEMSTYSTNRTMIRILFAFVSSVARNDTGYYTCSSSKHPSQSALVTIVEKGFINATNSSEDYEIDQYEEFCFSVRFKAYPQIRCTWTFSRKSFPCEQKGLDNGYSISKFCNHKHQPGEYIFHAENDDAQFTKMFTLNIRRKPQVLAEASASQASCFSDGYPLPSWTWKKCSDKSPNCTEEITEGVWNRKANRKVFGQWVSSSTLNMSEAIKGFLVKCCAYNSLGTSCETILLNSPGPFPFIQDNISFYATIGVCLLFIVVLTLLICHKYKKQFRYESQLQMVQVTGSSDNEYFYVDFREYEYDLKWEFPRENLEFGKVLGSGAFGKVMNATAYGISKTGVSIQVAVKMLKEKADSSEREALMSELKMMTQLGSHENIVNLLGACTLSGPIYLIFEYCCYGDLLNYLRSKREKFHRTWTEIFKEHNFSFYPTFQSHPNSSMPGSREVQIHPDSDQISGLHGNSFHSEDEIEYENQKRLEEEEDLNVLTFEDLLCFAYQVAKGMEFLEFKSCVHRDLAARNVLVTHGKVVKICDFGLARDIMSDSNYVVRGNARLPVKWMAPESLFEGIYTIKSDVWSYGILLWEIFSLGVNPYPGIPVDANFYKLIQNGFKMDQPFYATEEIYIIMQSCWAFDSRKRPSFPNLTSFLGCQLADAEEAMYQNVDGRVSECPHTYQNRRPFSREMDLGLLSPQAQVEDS
Calcium/calmodulin-dependent protein kinase type 1 (Homo sapiens), sequence (Q14012 whole entry, looked up): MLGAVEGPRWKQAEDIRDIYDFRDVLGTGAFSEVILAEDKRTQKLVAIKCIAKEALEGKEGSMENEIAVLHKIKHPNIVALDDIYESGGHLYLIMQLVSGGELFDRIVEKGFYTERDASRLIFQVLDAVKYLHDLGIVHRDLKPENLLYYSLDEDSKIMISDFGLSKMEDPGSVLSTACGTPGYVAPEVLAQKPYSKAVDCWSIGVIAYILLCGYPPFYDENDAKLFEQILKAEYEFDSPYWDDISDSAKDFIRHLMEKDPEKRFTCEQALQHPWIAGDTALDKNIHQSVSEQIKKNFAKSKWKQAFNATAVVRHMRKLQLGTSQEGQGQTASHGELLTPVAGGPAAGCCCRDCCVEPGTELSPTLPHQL
Serine/threonine-protein kinase Chk2 (Homo sapiens), sequence (O96017 whole entry): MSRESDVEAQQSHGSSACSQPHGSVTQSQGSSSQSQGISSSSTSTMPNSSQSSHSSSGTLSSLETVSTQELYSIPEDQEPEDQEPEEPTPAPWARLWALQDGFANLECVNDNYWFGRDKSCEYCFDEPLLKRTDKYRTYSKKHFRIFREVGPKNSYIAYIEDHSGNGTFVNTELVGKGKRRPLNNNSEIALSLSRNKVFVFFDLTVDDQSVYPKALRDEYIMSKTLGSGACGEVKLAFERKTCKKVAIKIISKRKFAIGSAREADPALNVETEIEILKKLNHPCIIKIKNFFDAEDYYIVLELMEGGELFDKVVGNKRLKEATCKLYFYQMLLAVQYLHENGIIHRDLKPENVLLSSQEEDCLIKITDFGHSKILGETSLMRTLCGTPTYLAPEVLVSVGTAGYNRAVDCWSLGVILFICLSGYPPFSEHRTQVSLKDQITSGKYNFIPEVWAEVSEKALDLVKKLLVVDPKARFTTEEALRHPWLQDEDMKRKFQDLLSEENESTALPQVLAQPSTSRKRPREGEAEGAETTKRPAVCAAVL
eIF-2-alpha kinase GCN2 (Homo sapiens), Q9P2K8 [S808G], sequence (Q9P2K8 whole entry S808G): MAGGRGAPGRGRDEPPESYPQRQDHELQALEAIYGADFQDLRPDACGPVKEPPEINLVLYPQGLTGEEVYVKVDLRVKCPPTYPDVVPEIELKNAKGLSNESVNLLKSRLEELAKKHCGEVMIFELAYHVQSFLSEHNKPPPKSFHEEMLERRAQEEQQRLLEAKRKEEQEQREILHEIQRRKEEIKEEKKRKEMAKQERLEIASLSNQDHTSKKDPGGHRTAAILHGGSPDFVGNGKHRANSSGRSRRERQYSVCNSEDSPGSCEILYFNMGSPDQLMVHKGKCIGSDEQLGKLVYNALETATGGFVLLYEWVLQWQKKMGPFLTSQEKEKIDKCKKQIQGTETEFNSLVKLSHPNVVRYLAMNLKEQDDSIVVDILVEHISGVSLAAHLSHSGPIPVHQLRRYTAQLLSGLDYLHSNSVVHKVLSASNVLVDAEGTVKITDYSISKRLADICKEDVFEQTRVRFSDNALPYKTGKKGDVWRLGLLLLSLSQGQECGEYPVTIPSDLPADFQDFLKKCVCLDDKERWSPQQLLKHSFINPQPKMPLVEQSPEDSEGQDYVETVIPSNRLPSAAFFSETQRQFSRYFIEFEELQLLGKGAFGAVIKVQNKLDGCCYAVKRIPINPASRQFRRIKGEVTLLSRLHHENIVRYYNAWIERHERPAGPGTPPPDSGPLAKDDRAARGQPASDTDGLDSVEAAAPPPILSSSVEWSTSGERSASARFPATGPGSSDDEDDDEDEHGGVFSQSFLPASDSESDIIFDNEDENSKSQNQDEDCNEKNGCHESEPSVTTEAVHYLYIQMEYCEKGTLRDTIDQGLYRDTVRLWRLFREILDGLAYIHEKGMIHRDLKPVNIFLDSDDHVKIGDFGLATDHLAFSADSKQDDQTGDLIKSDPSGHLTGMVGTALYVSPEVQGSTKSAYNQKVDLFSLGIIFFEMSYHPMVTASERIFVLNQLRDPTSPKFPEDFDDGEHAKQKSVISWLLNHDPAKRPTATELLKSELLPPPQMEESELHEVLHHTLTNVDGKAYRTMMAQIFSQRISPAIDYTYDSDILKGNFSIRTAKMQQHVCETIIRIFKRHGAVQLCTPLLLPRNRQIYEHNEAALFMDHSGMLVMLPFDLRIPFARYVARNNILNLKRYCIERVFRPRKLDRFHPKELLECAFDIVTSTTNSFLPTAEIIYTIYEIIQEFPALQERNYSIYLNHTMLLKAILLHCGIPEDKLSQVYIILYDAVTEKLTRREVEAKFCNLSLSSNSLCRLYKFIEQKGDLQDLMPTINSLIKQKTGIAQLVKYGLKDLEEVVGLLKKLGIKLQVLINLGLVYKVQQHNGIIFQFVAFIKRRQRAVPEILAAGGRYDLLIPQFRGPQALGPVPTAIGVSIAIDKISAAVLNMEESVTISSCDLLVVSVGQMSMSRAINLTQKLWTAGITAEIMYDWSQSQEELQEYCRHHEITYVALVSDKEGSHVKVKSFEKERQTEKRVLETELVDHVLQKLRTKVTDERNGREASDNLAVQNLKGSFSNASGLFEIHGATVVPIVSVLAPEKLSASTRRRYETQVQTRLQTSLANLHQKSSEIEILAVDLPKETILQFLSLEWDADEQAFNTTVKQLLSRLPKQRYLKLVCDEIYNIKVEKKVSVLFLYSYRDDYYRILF

Compound: CN(C)C/C=C/C(=O)Nc1ccc(C(=O)N2CCCC(Nc3ncc(Cl)c(-c4c[nH]c5ccccc45)n3)C2)cc1 (configuration not stated)
- % of control [1]: 77%

- % of inhibition [2]: -4.8%
- % of inhibition [3]: -14.5%
Compound: CC[C@@H]1[C@H](F)C(=O)N[C@@H]1COc1nccc2cc(C(N)=O)c(OC)cc12 [ZIMLOVISERTIB]

- % of control [4]: 62%
Compound: C=CC(=O)Nc1cccc(C(=O)Nc2ccc(Nc3cc(-c4[nH]c(SC)nc4C)ccn3)cc2)c1

Compound: O[C@H]1CC[C@H](Nc2ncc3nc(Nc4c(F)cc(F)cc4F)n([C@H]4CCOC4)c3n2)CC1
- % of control [5]: 100%

Compound: O=C(NOC[C@H](O)CO)c1ccc(F)c(F)c1Nc1ccc(I)cc1F
- % of control [6]: 68%
- % of control [7]: 100%

Reference: ChEMBL document CHEMBL5465560, “Selectivity Literature for EUbOPEN Chemogenomic Library” (2024)
